Test results reported in article PMC10221074, “Functional Profiling of the A-Family of Venom Peptides from the Wolf Spider Lycosa shansia” (Toxins, 2023).

What was measured:
[1] = tested on: G. mellonella larvae; test: Insecticidal activity by injection into larvae; assay type: in vivo, Galleria mellonella; conditions: ethanol injected as positive control, after 5 days
Experimental: Insecticidal activity was determined using fourth and fifth instar G. mellonella larvae (L4/L5) obtained from Fauna Topics Zoobedarf Zucht und Handels GmbH (Marbach am Neckar, Germany). Because spider venom is injected via chelicerae, we opted for an injection-based assay to reflect the natural process of envenomation as described earlier. The peptides were dissolved in a 1:1 mixture of DMSO and water to a final concentration of 10 mmol/L. We injected 50 ng of each peptide into the pseudopodium using Omnican-F, 0.30 × 12 mm/G 30 × 1/2”, a 1 mL syringe adjusted to a WPI manual microsyringe injector setup. Injections with water, DMSO/water (1:1) and ethanol (90%) were used as controls, alongside untreated specimens. Insecticidal activity screenings were performed in cohorts of 10 larvae with 3 replicates (30 specimens per treatment or control). […] Survival was monitored every 24 h for 5 days. Mortality was calculated based on the ratio of dead to injected specimens.

[2] = tested on: Escherichia coli BL21(DE3); test: Antibacterial growth assay (OD600); conditions: for Bacterial growth relative to medium, E. coli, replicate 1 / Bacterial growth relative to medium, E. coli, replicate 2 / Bacterial growth relative to medium, E. coli, replicate 3: OD600, medium = 100, MH II broth, 37 °C, peptide 200 µM mixed 50 µL + 50 µL with bacteria, Figure 7: 48 h; for Bacterial growth relative to medium, E. coli, replicate 1: replicate column 1; for Bacterial growth relative to medium, E. coli, replicate 2: replicate column 2; for Bacterial growth relative to medium, E. coli, replicate 3: replicate column 3
Experimental: (§1) Cryo-conserved cultures of selected bacterial strains (Table 4) were transferred to Tryptic Soy Agar (TSA) plates (Carl Roth) with a sterile inoculation loop, sealed with Parafilm (BEMIS, Neenah, WI, USA), and incubated for 1–2 days at 37 °C depending on growth. Single colonies were picked and transferred into 2–3 mL of the Mueller–Hinton II (MH II) broth (BD, Heidelberg, Germany). The bacteria were cultivated overnight, subcultured on fresh medium and grown for 3–4 h before testing at 37 °C, with shaking at 180 rpm. We measured the optical density at 600 nm (OD600) of 1 mL of the bacterial suspensions in polystyrene cuvettes (SARSTED, Nümbrecht, Germany) using an Ultrospec 10 spectrophotometer (Biochrome, Cambridge, UK). We then diluted them with the MH II medium to the preferred OD600 (Table 2). The peptides were dissolved in DMSO to generate 10 mmol/L stocks and diluted with the MH II medium to 200 µM before the assay. We used 10 µg/mL (~40 µg/mL for S. epidermidis) gentamicin and colistin (Sigma-Aldrich, Taufkirchen, Germany), DMSO and the medium only as controls. The bacteria were transferred to 96-multiwell plates with a final volume of 100 µL per well (50 µL bacterial suspension, and 50 µL test peptide). The OD600 was measured at 0, 24 and 48 h using a BioTek Eon microplate reader followed by analysis with Gen5 v2.09.

[3] = tested on: Listeria monocytogenes DSM 20600; test: Antibacterial growth assay (OD600); conditions: for Bacterial growth relative to medium, L. monocytogenes, replicate 1 / Bacterial growth relative to medium, L. monocytogenes, replicate 2 / Bacterial growth relative to medium, L. monocytogenes, replicate 3: OD600, medium = 100, MH II broth, 37 °C, peptide 200 µM mixed 50 µL + 50 µL with bacteria, Figure 7: 48 h; for Bacterial growth relative to medium, L. monocytogenes, replicate 1: replicate column 1; for Bacterial growth relative to medium, L. monocytogenes, replicate 2: replicate column 2; for Bacterial growth relative to medium, L. monocytogenes, replicate 3: replicate column 3
[4] = tested on: panel of seven bacterial strains; test: Antibacterial growth assay (OD600), statements on the whole panel; assay type: cell-based; conditions: growth after 48 h
[5] = tested on: Staphylococcus aureus DSM 2569; test: Antibacterial growth assay (OD600); conditions: for Bacterial growth relative to medium, S. aureus, replicate 1 / Bacterial growth relative to medium, S. aureus, replicate 2 / Bacterial growth relative to medium, S. aureus, replicate 3: OD600, medium = 100, MH II broth, 37 °C, peptide 200 µM mixed 50 µL + 50 µL with bacteria, Figure 7: 48 h; for Bacterial growth relative to medium, S. aureus, replicate 1: replicate column 1; for Bacterial growth relative to medium, S. aureus, replicate 2: replicate column 2; for Bacterial growth relative to medium, S. aureus, replicate 3: replicate column 3
[6] = tested on: A/Hessen/1/2003 (H3N2); assay type: cell-based, influenza virus
[7] = tested on: Micrococcus luteus DSM 20030; test: Antibacterial growth assay (OD600); conditions: for Antibacterial activity (in words): M. luteus DSM 20030, growth after 48 h; for Bacterial growth relative to medium, M. luteus, replicate 1 / Bacterial growth relative to medium, M. luteus, replicate 2 / Bacterial growth relative to medium, M. luteus, replicate 3: OD600, medium = 100, MH II broth, 37 °C, peptide 200 µM mixed 50 µL + 50 µL with bacteria, Figure 7: 48 h; for Bacterial growth relative to medium, M. luteus, replicate 1: replicate column 1; for Bacterial growth relative to medium, M. luteus, replicate 2: replicate column 2; for Bacterial growth relative to medium, M. luteus, replicate 3: replicate column 3
Experimental: as §1

[8] = tested on: Staphylococcus epidermidis DSM 28319; test: Antibacterial growth assay (OD600); conditions: for Bacterial growth relative to medium, S. epidermidis, replicate 1 / Bacterial growth relative to medium, S. epidermidis, replicate 2 / Bacterial growth relative to medium, S. epidermidis, replicate 3: OD600, medium = 100, MH II broth, 37 °C, peptide 200 µM mixed 50 µL + 50 µL with bacteria, Figure 7: 48 h; for Bacterial growth relative to medium, S. epidermidis, replicate 1: replicate column 1; for Bacterial growth relative to medium, S. epidermidis, replicate 2: replicate column 2; for Bacterial growth relative to medium, S. epidermidis, replicate 3: replicate column 3
Experimental: as §1

[9] = tested on: Pseudomonas aeruginosa DSM 1117; test: Antibacterial growth assay (OD600); conditions: OD600, medium = 100, MH II broth, 37 °C, peptide 200 µM mixed 50 µL + 50 µL with bacteria, Figure 7: 48 h; for Bacterial growth relative to medium, P. aeruginosa (1117), replicate 1: replicate column 1; for Bacterial growth relative to medium, P. aeruginosa (1117), replicate 2: replicate column 2; for Bacterial growth relative to medium, P. aeruginosa (1117), replicate 3: replicate column 3
Experimental: as §1

[10] = tested on: Pseudomonas aeruginosa DSM 50071; test: Antibacterial growth assay (OD600); conditions: OD600, medium = 100, MH II broth, 37 °C, peptide 200 µM mixed 50 µL + 50 µL with bacteria, Figure 7: 48 h; for Bacterial growth relative to medium, P. aeruginosa (50071), replicate 1: replicate column 1; for Bacterial growth relative to medium, P. aeruginosa (50071), replicate 2: replicate column 2; for Bacterial growth relative to medium, P. aeruginosa (50071), replicate 3: replicate column 3
Experimental: as §1

[11] = tested on: A/Hamburg/05/2009 (H1N1); assay type: cell-based, influenza virus
[12] = tested on: B/Malaysia/2506/2004 (B-Mal); assay type: cell-based, influenza virus

| Compound | Bacterial growth relative to medium, E. coli, replicate 1 [2] | Bacterial growth relative to medium, E. coli, replicate 2 [2] | Bacterial growth relative to medium, E. coli, replicate 3 [2] | Bacterial growth relative to medium, L. monocytogenes, replicate 1 [3] | Bacterial growth relative to medium, L. monocytogenes, replicate 2 [3] | Bacterial growth relative to medium, L. monocytogenes, replicate 3 [3] | Antibacterial activity over the panel (in words) [4] | Bacterial growth relative to medium, S. aureus, replicate 1 [5] | Bacterial growth relative to medium, S. aureus, replicate 2 [5] | Bacterial growth relative to medium, S. aureus, replicate 3 [5] | Viability of infected cells relative to aprotinin, Replicate 1 [6] | Viability of infected cells relative to aprotinin, Replicate 2 [6] | Bacterial growth relative to medium, M. luteus, replicate 1 [7] | Bacterial growth relative to medium, M. luteus, replicate 2 [7] | Bacterial growth relative to medium, M. luteus, replicate 3 [7] | Bacterial growth relative to medium, S. epidermidis, replicate 1 [8] | Bacterial growth relative to medium, S. epidermidis, replicate 2 [8] | Bacterial growth relative to medium, S. epidermidis, replicate 3 [8] | Bacterial growth relative to medium, P. aeruginosa (1117), replicate 1 [9] | Bacterial growth relative to medium, P. aeruginosa (1117), replicate 2 [9] | also measured |
| --- | --- | --- | --- | --- | --- | --- | --- | --- | --- | --- | --- | --- | --- | --- | --- | --- | --- | --- | --- | --- | --- |
| CCO [EtOH, ethanol, reference compound] | – | – | – | – | – | – | – | – | – | – | – | – | – | – | – | – | – | – | – | – | Mortality [1]: up to 50% |
| SLLGLLDVVKNTVGQTG [LS-AMP-A9] | 70.1329 | 70.7996 | 35.5653 | 56.5719 | 67.4623 | 66.1408 | inhibited the growth of most of the bacteria except two | 57.4133 | 67.8221 | 95.0991 | 0.1782 | 0.2232 | 52.4959 | 91.4416 | 32.7594 | 52.3672 | 52.2824 | 65.3172 | 56.3665 | 70.6926 | Antibacterial activity (in words) ([2]; E. coli BL21(DE3), growth after 48 h): able to decrease the growth; Antibacterial activity (in words) ([3]; L. monocytogenes DSM 20600, growth after 48 h): able to decrease the growth; Antibacterial activity (in words) ([5]; S. aureus DSM 2569, growth after 48 h): able to decrease the growth; Viability of infected cells relative to aprotinin, Replicate 3 [6]: 0.05605; Antibacterial activity (in words) [7]: able to decrease the growth; Antibacterial activity (in words) ([8]; S. epidermidis DSM 28319, growth after 48 h): able to decrease the growth; Bacterial growth relative to medium, P. aeruginosa (1117), replicate 3 [9]: 77.8728; Bacterial growth relative to medium, P. aeruginosa (50071), replicate 1 [10]: 97.5053; Bacterial growth relative to medium, P. aeruginosa (50071), replicate 2 [10]: 110.589; Bacterial growth relative to medium, P. aeruginosa (50071), replicate 3 [10]: 87.613; Viability of infected cells relative to aprotinin, Replicate 1 [11]: 0.04771; Viability of infected cells relative to aprotinin, Replicate 2 [11]: 0.03968; Viability of infected cells relative to aprotinin, Replicate 3 [11]: 0.02362; Viability of infected cells relative to aprotinin, Replicate 1 [12]: 0.09007; Viability of infected cells relative to aprotinin, Replicate 2 [12]: 0.06966; Viability of infected cells relative to aprotinin, Replicate 3 [12]: 0.05846 |
| SLLGLLDVVKNTVGQTGLL [LS-AMP-A8] | 91.7388 | 101.043 | 53.4577 | 57.9391 | 71.2645 | 69.2971 | inhibited the growth of most of the bacteria except two | 67.0732 | 73.4467 | 85.2226 | 0.08185 | 0.1031 | 72.2222 | 103.716 | 73.0273 | 79.7615 | 73.3026 | 77.5582 | 76.1322 | 81.7612 | Viability of infected cells relative to aprotinin, Replicate 3 [6]: 0.0008759; Antibacterial activity (in words) [7]: no activity; Bacterial growth relative to medium, P. aeruginosa (1117), replicate 3 [9]: 75.3667; Bacterial growth relative to medium, P. aeruginosa (50071), replicate 1 [10]: 99.79; Bacterial growth relative to medium, P. aeruginosa (50071), replicate 2 [10]: 113.132; Bacterial growth relative to medium, P. aeruginosa (50071), replicate 3 [10]: 91.0686; Viability of infected cells relative to aprotinin, Replicate 1 [11]: 0.02555; Viability of infected cells relative to aprotinin, Replicate 2 [11]: 0.01502; Viability of infected cells relative to aprotinin, Replicate 3 [11]: 0.01283; Viability of infected cells relative to aprotinin, Replicate 1 [12]: 0.03065; Viability of infected cells relative to aprotinin, Replicate 2 [12]: 0.0169; Viability of infected cells relative to aprotinin, Replicate 3 [12]: 0.06181 |
| SLLGLLDVVKSKVGQTGLL [LS-AMP-A18] | 110.572 | 96.6395 | 68.0936 | 145.215 | 105.128 | 13.7733 | largely inactive | 75 | 66.2525 | 80.9203 | 0.1207 | 0.1378 | 143.237 | 115.766 | 65.7102 | 95.0126 | 84.2348 | 89.1297 | 87.8796 | 68.3606 | Bacterial growth relative to medium, P. aeruginosa (1117), replicate 3 [9]: 68.2151; Bacterial growth relative to medium, P. aeruginosa (50071), replicate 1 [10]: 102.836; Bacterial growth relative to medium, P. aeruginosa (50071), replicate 2 [10]: 105.708; Bacterial growth relative to medium, P. aeruginosa (50071), replicate 3 [10]: 87.0813; Viability of infected cells relative to aprotinin, Replicate 1 [11]: 0.03159; Viability of infected cells relative to aprotinin, Replicate 2 [11]: 0.03911; Viability of infected cells relative to aprotinin, Replicate 3 [11]: 0.01637; Viability of infected cells relative to aprotinin, Replicate 1 [12]: 0.06546; Viability of infected cells relative to aprotinin, Replicate 2 [12]: 0.04295; Viability of infected cells relative to aprotinin, Replicate 3 [12]: 0.0512 |
